Assay results published in patent publication US10144713B1, “Bis-cyclic guanidines as antibacterial agents” (UNIVERSITY OF SOUTH FLORIDA, priority 2017, dated 2018).

Columns and labels:
S. aureus ATCC 33591 = assay: Thigh burden infection model in neutropenic mice; assay type: in vivo, CD-1 female mice; settings: 5 mg/kg i.v. at 1 and 7 h after infection, thighs harvested at 25 h
Protocol: Neutropenic mice (n=4 per group) were inoculated in the posterior thigh muscles with S. aureus ATCC 33591 at 1×10^6 CFU per thigh and then treated with compounds 11 and 12 (5 mg/kg per dose) by i.v. bolus injection in the tail vein at 1 and 7 h after infection.
A thigh burden model was employed to evaluate the in vivo anti-infective activity of compounds 11 and 12, in which the thigh muscle of neutropenic mice was inoculated with S. aureus, followed by intravenous (i.v.) administration of corresponding compounds. All protocols and methods associated with animal experiments were approved by University of South Florida (USF) Institutional Animal Care and Use Committee. The in vivo experiment on the mouse model of the thigh burden infection with MRSA was conducted adapted from previously reported protocol. The CD-1 female mice which were 6 to 8 weeks old and around 25 g in weights were used for the study. Neutropenic Mice were induced by injecting cyclophosphamide (150 mg/kg) intraperitoneally twice at 4 and 1 days before bacterial inoculation. One MRSA colony from tryptic soy agar (TSA) cultures was allowed to grow in tryptic soy broth (TSB) overnight at 37° C., then 100 μL culture was withdrawn and diluted with TSB to a total volume of 4 mL, which was subsequently incubated at 37° C. for another 6 h. […] The formed colonies were counted to calculate CFU per thigh.

[1] = system: P. aeruginosa (ATCC27853); assay: MIC against P. aeruginosa; assay type: cell-based; settings: Pseudomonas aeruginosa, ATCC27853; Gram −; 16 h, 37° C.
Protocol: (§1) Minimum Inhibitory Concentrations (MICs) Against Bacteria.
(§2) The antimicrobial activity of the compounds was tested on the following six bacteria strains: K. pneumoniae (ATCC 13383), P. aeruginosa (ATCC27853), E. coli (ATCC 25922), vancomycin-resistant Enterococcus faecalis(ATCC 700802), Methicillin-resistant S. aureus (MRSA, ATCC 33591), Methicillin-resistant S. epidermidis (MRSE, RP62A). The procedures were followed as reported previously (Hancock et al., Immunobiology 2006, 211, 315-322). Briefly, a single colony of each bacterium was inoculated in 3 mL TSB medium and incubated overnight at 37° C. Then the bacteria culture was diluted at 1:100 and the bacteria were allowed to grow to mid-logarithmic phase. Next, 50 μL of 2-fold serial dilutions of compounds (0.1-25 μg/mL) were added the 96-well plate containing aliquots of 50 μL of bacteria suspension (1×10^6 CFU/mL) in each well. The mixture was incubated at 37° C. for 16 h, and their absorption at 600 nm wavelength was read on a Biotek Synergy HT microtiter plate reader. […] The experiments were repeated at least three times with duplicates each time. HC50 means the concentration causing 50% hemolysis.

E. coli (ATCC 25922) = assay: MIC against E. coli; assay type: cell-based; settings: Escherichia coli, ATCC25922; Gram −; 16 h, 37° C.
Protocol: as §1, §2

[2] = system: vancomycin-resistant Enterococcus faecalis (ATCC 700802); assay: MIC against VRE; assay type: cell-based; settings: Gram +; 16 h, 37° C.
Protocol: as §1, §2

[3] = system: human red blood cells (hRBCs); assay: Hemolytic assay; assay type: cell-based
Protocol: The freshly drawn, K2EDTA treated human red blood cells (hRBCs) were washed with 1×PBS buffer, and centrifuged at 3500 rpm for 10 min. The step was repeated until the supernatant became clear. The supernatant was removed, and the RBCs were diluted into 5% v/v suspension. 50 μL of the suspension was incubated with 50 μL of compounds of different concentrations at 37° C. for 1 h. The mixture was centrifuged at 3500 rpm for 10 min. Subsequently, to 30 μL of the supernatant 100 μL PBS was added, and the absorbance of the mixture at 540 nm was read on a Biotek Synergy HT plate reader. The positive control was 2% Triton X-100, and the negative control was 1×PBS alone. The hemolysis activity was calculated by the formula % hemolysis=(Abssample−AbsPBS)/(AbsTriton−AbsPBS)×100%. The experiment was repeated at least three times with duplicates each time.

E. coli = assay: Time-kill study; assay type: cell-based
Protocol: The killing activity was monitored for the first 2 h. The concentrations for compound 11 were 2×MIC, 4×MIC, and 8×MIC, respectively.
Time-kill studies were conducted to investigate the bacterial killing kinetics of compounds 11 and 12 by using E. Coli. Briefly, the bacteria […] grew to mid-logarithmic phase in TSB medium, from which the suspension (10^6 CFU/ml) was made. The suspension was incubated with different concentrations of 11 or 12 for 10 min, 30 min, 1 h and 2 h respectively. The mixtures were diluted by 10^2 to 10^4 fold and spread on TSB agar plates. After incubation at 37° C. overnight, the colonies on the plates were counted and plotted against the incubation time. […] Cell colonies were counted in agar plates at 12.5, 25, and 50 μg/mL. Compound 11 at the concentration of 12.5 or 25 μg/mL completely removed all bacteria in 2 hours, and at 50 μg/mL it completely removed bacteria in 0.5 hour. Compound 12 killed E. Coli completely in 0.5 hour at the concentration of 12.5 μg/mL.

[4] = system: six bacteria strains (K. pneumoniae, P. aeruginosa, E. coli, VRE, MRSA, MRSE); assay: Antimicrobial activity on the panel of six bacteria strains; assay type: cell-based
Protocol: as §1, §2

[5] = system: K. pneumoniae (ATCC 13383); assay: MIC against K. pneumoniae; assay type: cell-based; settings: Klebsiella pneumoniae, ATCC13383; Gram −; 16 h, 37° C.
Protocol: as §1, §2

[6] = system: Methicillin-resistant S. aureus (MRSA, ATCC 33591); assay: MIC against MRSA; assay type: cell-based; settings: Staphylococcus aureus; Gram +; 16 h, 37° C.
Protocol: as §1, §2

[7] = system: Methicillin-resistant S. epidermidis (MRSE, RP62A); assay: MIC against MRSE; assay type: cell-based; settings: Staphylococcus epidermidis, MRSE; Gram +; 16 h, 37° C.
Protocol: as §1, §2

- MIC [1]: 6 µg/mL
- MIC (E. coli (ATCC 25922)): 1.5 µg/mL
- MIC [2]: 0.75 µg/mL
- MIC [5]: 1.5 µg/mL
- MIC [6]: 0.33 µg/mL
- MIC [7]: 0.75 µg/mL
SMILES: CCCCCCN1C(=N)N(CC(=O)Nc2ccc(NC(=O)CN3C[C@H](Cc4ccccc4)N(CCCCCC)C3=N)cc2)C[C@@H]1Cc1ccccc1 [Compound 11]
- decrease in colony-forming unit (CFU) per thigh (S. aureus ATCC 33591): 3 log10 CFU
- selectivity, hemolytic activity against MIC values of MRSA [3]: 769 folds
- time to completely remove all bacteria (E. coli; 12.5 μg/mL): 2 h
- time to completely remove all bacteria (E. coli; 25 μg/mL): 2 h
- time to completely remove all bacteria (E. coli; 50 μg/mL): 0.5 h
- antibacterial activity against the tested bacteria (in words) [4]: potent and broad-spectrum activity
